Laboratory results taken from patent US8653003B2, “Pyrazol-4-yl carboxamide derivatives as microbiocides” (Syngenta Participations AG, priority 2011, dated 2014).

How the values were obtained:
Botrytis cinerea = experiment: Action against Botrytis cinerea - fungal growth assay; format: cell-based; settings: 0.002% active ingredient, PDB broth, 24° C., photometric after 3-4 days
Method: (§1) Conidia of the fungus from cryogenic storage was directly mixed into nutrient broth (PDB potato dextrose broth). After placing a (DMSO) solution of the test compounds (0.002% active ingredient) into a microtiter plate (96-well format) the nutrient broth containing the fungal spores was added. The test plates were incubated at 24° C. and the inhibition of growth was measured photometrically after 3-4 days. The activity of a compound was expressed as fungal growth inhibition (0=no growth inhibition, ratings of 80% to 99% mean good to very good inhibition, 100%=complete inhibition).

[1] = tested on: Mycosphaerella arachidis (Cercospora arachidicola [anamorph]); experiment: Action against Mycosphaerella arachidis (early leaf spot of groundnut) - fungal growth assay; format: cell-based; settings: 0.002% active ingredient, PDB broth, 24° C., photometric after 6-7 days
Method: as §1, with “storage were” for “storage was”, “broth (Pdb” for “broth (PDB”, “after 6-7” for “after 3-4”

Septoria tritici = experiment: Action against Septoria tritici - fungal growth assay; format: cell-based; settings: Zymoseptoria tritici; 0.002% active ingredient, PDB broth, 24° C., photometric after 72 hrs
Method: as §1, with “storage were” for “storage was”, “was determined” for “was measured”, “after 72 hrs.” for “after 3-4 days.”

[2] = tested on: Erysiphe graminis f. sp. tritici; experiment: Action against Erysiphe graminis f. sp. tritici (wheat powdery mildew), wheat leaf segments; format: in vivo; settings: Blumeria graminis, foliar, 168 h; 0.02% active ingredient sprayed on wheat leaf segments, assessed 7 days after inoculation; read-out: preventive fungicidal activity (inhibition)
Method: (§2) Wheat leaf segments were placed on agar in multiwell plates (24-well format) and sprayed with test solutions (0.02% active ingredient). After drying, the leaf disks were inoculated with a spore suspension of the fungus. After appropriate incubation the activity of a compound was assessed 7 days after inoculation as preventive fungicidal activity.

Puccinia recondita [3] = experiment: Protective action against Puccinia recondita (brown rust) on wheat leaf segments; format: in vivo; settings: foliar, 192 h, 0.02% active ingredient sprayed on wheat leaf segments, assessed 8 days after inoculation, read-out: preventive fungicidal activity (inhibition)
Method: as §2, with “8” for “7”

Puccinia recondita [4] = experiment: Curative action against Puccinia recondita (brown rust) on wheat leaf segments; format: in vivo; settings: foliar, 0.02% active ingredient sprayed one day after inoculation, assessed 8 days after inoculation, read-out: curative fungicidal activity (inhibition)
Method: Wheat leaf segments were placed on agar in multiwell plates (24-well format) and inoculated with a spore suspension of the fungus. One day after inoculation the leaf segments were sprayed with test solutions (0.02% active ingredient). After appropriate incubation the activity of a compound was assessed 8 days after inoculation as curative fungicidal activity.

Pyrenophora teres = experiment: Action against Pyrenophora teres (net blotch) on barley leaf segments; format: in vivo; settings: foliar, 96 h, 0.02% active ingredient sprayed on barley leaf segments, assessed 4 days after inoculation, read-out: preventive fungicidal activity (inhibition)
Method: as §2, with “Barley” for “Wheat”, “4” for “7”

CON(C(=O)c1cn(C)nc1C(F)F)C1CCCc2ccccc21 (stereo not shown) [Compound 1.001]
inhibition at 0.002 % strength (Botrytis cinerea): ≥ 80%
inhibition at 0.002 % strength [1]: ≥ 80%
inhibition at 0.002 % strength (Septoria tritici): ≥ 80%
inhibition at 0.02 % strength [2]: ≥ 80%
inhibition at 0.02 % strength (Puccinia recondita [3]): ≥ 80%
inhibition at 0.02 % strength (Puccinia recondita [4]): ≥ 80%
inhibition at 0.02 % strength (Pyrenophora teres): ≥ 80%
melting point: 91 to 95 °C

CON(C(=O)c1cn(C)nc1C(F)F)C1CCCc2ccc(Cl)cc21 (stereo not shown) [Compound 1.003, 3-difluoromethyl-1-methyl-1H-pyrazole-4-carboxylic acid (7-chloro-1,2,3,4-tetrahydro-naphthalen-1-yl)-methoxy-amide]
inhibition at 0.002 % strength [1]: ≥ 80%
inhibition at 0.002 % strength (Septoria tritici): ≥ 80%
inhibition at 0.02 % strength [2]: ≥ 80%
inhibition at 0.02 % strength (Puccinia recondita [3]): ≥ 80%
inhibition at 0.02 % strength (Puccinia recondita [4]): ≥ 80%
inhibition at 0.02 % strength (Pyrenophora teres): ≥ 80%

CON(C(=O)c1cn(C)nc1C(F)F)C1CCCCc2ccc(I)cc21 (stereo not shown) [Compound 1.062, 3-difluoromethyl-1-methyl-1H-pyrazole-4-carboxylic acid (3-iodo-6,7,8,9-tetrahydro-5-H-benzocyclohepten-5-yl)-methoxy-amide]
inhibition at 0.002 % strength [1]: ≥ 80%
inhibition at 0.002 % strength (Septoria tritici): ≥ 80%
inhibition at 0.02 % strength (Puccinia recondita [3]): ≥ 80%
inhibition at 0.02 % strength (Puccinia recondita [4]): ≥ 80%

CON(C(=O)c1cn(C)nc1C(F)F)C1c2ccccc2CCCC1F (stereo not shown) [Compound 1.065, 3-difluoromethyl-1-methyl-1H-pyrazole-4-carboxylic acid (6-fluoro-6,7,8,9-tetrahydro-5-H-benzocyclohepten-5-yl)-methoxy-amide]
inhibition at 0.002 % strength (Botrytis cinerea): ≥ 80%
inhibition at 0.002 % strength [1]: ≥ 80%
inhibition at 0.002 % strength (Septoria tritici): ≥ 80%
inhibition at 0.02 % strength [2]: ≥ 80%
inhibition at 0.02 % strength (Puccinia recondita [3]): ≥ 80%
inhibition at 0.02 % strength (Puccinia recondita [4]): ≥ 80%
inhibition at 0.02 % strength (Pyrenophora teres): ≥ 80%
